In patent publication US20110053945A1, “SALTS OF 6-(5-CHLORO-2-PYRIDYL)-5-[(4-METHYL-1-PIPERAZINYL)CARBONYLOXY]-7-OXO-6,7-DIHY-DRO-5H-PYRROLO[3,4-B]PYRAZINE” (SEPRACOR INC., priority 2007, published 2011):
Structures can show the parent of a compound that is named as a salt.

Experiments:
[1] = Aqueous solubility, equilibrated 24 hour suspension of the salt in water, HPLC; format: physicochemical; settings: for pH: pH measured at saturation in water; for Solubility: water, 24 hour at ambient
Experimental: The aliquot was diluted and analyzed by HPLC. The data was compared to a standard curve generated from a set of solutions of known concentrations. The standard curve and the samples were analyzed using a HPLC using the following conditions: • Column: Symmetry C-18, 5 um, 15 cm×3.9 mm (Waters) • Mobile Phase: 0.05 M KH2PO4-0.01 M Hexanesulfonic Acid/THF (1000:125) (Apparent pH 5.0) • Column Temp: 20-30° C. • Flow Rate: 1.0 mL/min • Wavelength: 305 nm • Run Time: 15 min (zopiclone retention time is 9.5-10 min)

[2] = Intrinsic dissolution, USP 28 method <1087>; format: physicochemical; settings: isotonic 50 mM acetate buffer pH 4.5, 37° C., 50 rpm; for Intrinsic dissolution Average: average of two runs
Experimental: Intrinsic dissolution was determined using USP 28 method <1087> (United States Pharmacopeia, The National Formulary, USP 28, 28th edition, Rockville, […]., 2005). Preparation of each test sample was performed as per USP 28 method <1087> by weighing and transferring the material to the die cavity and compressing for 1 minute at the minimum compression pressure necessary to form a nondisintegrating compacted pellet. The dissolution media used was isotonic 50 mM acetate buffer (pH 4.5) at 37° C. and speed was set at 50 rpm. Each run was halted at 5 min, irrespective of the percent dissolved. Each salt was run in duplicate.

Row | SMILES | pH [1] | Solubility [1] | Intrinsic dissolution Run 1 [2] [mgA/cm^2/min] | Intrinsic dissolution Run 2 [2] [mgA/cm^2/min] | Intrinsic dissolution Average [2] [mgA/cm^2/min]
1 | CN1CCN(C(=O)OC2c3nccnc3C(=O)N2c2ccc(Cl)cn2)CC1 (stereo in doubt) [(R)-Mandelate, (S)-Zopiclone (R)-Mandelate] | 5.1 | 25 mgA/mL | 8.2 | 8.9 | 8.5
2 | CN1CCN(C(=O)O[C@H]2c3nccnc3C(=O)N2c2ccc(Cl)cn2)CC1 [Succinate, (S)-Zopiclone Succinate] | – | 100 mgA/mL | – | – | –
3 | CN1CCN(C(=O)O[C@H]2c3nccnc3C(=O)N2c2ccc(Cl)cn2)CC1 [Free base, (S)-(6-(5-chloro-2-pyridyl)-5-[(4-methyl-1-piperazinyl)carbonyloxy]-7-oxo-6,7-dihydro-5H-pyrrolo[3,4-b]pyrazine), reference compound] | 7.6 | 0.2^1 mgA/mL | 0.6 | 0.5 | 0.5
4 | CN1CCN(C(=O)O[C@H]2c3nccnc3C(=O)N2c2ccc(Cl)cn2)CC1 [D-Malate, (S)-Zopiclone D-Malate] | 4.0 | 36 mgA/mL | 20.0 | 19.8 | 19.9
5 | CN1CCN(C(=O)O[C@H]2c3nccnc3C(=O)N2c2ccc(Cl)cn2)CC1 [Mesylate, (S)-Zopiclone Mesylate] | 4.9 | >86 mgA/mL | – | – | –
